Data taken from patent EP3403653A1, “COMPOUNDS FOR USE IN TREATING BIPOLAR AND RELATED DISORDERS” (Centre National de la Recherche Scientifique (CNRS), priority 2017, dated 2018).
pKi: −log10 of the molar value.

Experiments:
NHE1 = NHE1 (Homo sapiens, UniProt P19634); test: Lithium uptake measurement, NHE1 control; type: cell-based; conditions: for Km: Michaelis constant of the cation for the exchanger; for pKi: calculated from dose-response curves of lithium uptake
Experimental: The uptake of lithium was then started by adding the same medium containing 3 to 10 mM LiCl and the various inhibitor concentrations. […] At the end of the uptake time the cells were rinsed rapidly (4 rinses in less than 10 seconds) in PBS at 4° C. 250µl of 25% nitric acid were added per well. The cell contents were then transferred into eppendorf tubes. The tubes were centrifuged for 5 min at 13000 rpm at room temperature. The supernatant is used to measure the activity of NHE7 (or NHE1 in control) by measuring intracellular the Li^+ concentrations (which are due to NHE7 transport) by atomic absorption spectroscopy. (Thermo ICE 3000 Series AA Spectrometer). Data obtained from the uptake measurements were used to plot the dose responses curves i.e. the % of maximal lithium uptake as a function of the inhibitors concentrations (Log scale, figure 1).
It is simple to obtain a linear equation by plotting the Maximal rate (w/o inhibitor) versus the rates in the presence of inhibitor, as a function of the inhibitor concentration. […] Table 1: Ki of the tested inhibitors

NHE7 [1] = target: T1, NHE7 (Homo sapiens, UniProt Q96T83); conditions: Michaelis constant of the cation for the exchanger; cited from earlier work
T1 construct: expressed in transfected cells
T1 sequence (Q96T83 1-725): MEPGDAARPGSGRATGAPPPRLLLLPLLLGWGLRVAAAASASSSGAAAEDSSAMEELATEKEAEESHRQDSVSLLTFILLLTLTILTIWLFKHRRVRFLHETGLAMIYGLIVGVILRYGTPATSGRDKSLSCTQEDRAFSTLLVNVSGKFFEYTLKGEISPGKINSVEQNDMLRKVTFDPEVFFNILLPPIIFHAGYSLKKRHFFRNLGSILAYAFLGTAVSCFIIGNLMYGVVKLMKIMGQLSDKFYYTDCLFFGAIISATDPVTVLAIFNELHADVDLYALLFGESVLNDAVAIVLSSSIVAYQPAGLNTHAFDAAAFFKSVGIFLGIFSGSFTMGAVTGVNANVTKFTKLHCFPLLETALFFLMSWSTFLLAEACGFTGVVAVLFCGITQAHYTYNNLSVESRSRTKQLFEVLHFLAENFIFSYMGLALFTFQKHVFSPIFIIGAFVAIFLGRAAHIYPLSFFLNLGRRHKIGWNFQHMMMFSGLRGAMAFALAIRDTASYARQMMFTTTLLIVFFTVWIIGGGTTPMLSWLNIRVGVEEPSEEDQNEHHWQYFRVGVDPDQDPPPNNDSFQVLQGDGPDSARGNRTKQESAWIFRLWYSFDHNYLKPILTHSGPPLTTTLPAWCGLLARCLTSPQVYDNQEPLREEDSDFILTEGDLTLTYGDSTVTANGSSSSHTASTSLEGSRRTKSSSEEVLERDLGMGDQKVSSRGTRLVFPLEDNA

NHE7 [2] = target: T1, NHE7; test: Lithium uptake in PM-NHE7 cells (atomic absorption spectroscopy), dose-response of inhibitors; type: cell-based; conditions: for pKi: calculated from dose-response curves of lithium uptake, 3 to 10 mM LiCl, initial velocity conditions; for affinity to NHE7 / selectivity of affinity NHE7 compare to NHE1: statement in words; for affinity to NHE7: from dose-response curves (figure 1) and table 1; for selectivity of affinity NHE7 compare to NHE1: from table 1
Experimental: The PM-NHE7 cells selected for NHE7 expression at the plasma membrane (Milosavljevic N, Monet M, Léna I, Brau F, Lacas-Gervais S, Feliciangeli S, Counillon L, Poet M., The intracellular Na(+)/H(+) exchanger NHE7 effects a Na(+)-coupled, but not K(+)-coupled proton-loading mechanism in endocytosis. Cell rep. 7, 1-8, May 8, 2014, 689-696) were seeded to confluence on 24-well plates and incubated for 60 minutes at 37°C in a medium containing 50 mM NH4Cl , 70mM Choline Chloride, 2 mM CaCl2, 1 mM MgCl2, 5 mM glucose, 15 mM Hepes (pH 7.4). The cells were then rinsed twice in less than 15 seconds with 120 mM choline chloride buffered to pH 7.4 with 15 mM Tris, 1 mM MgCl2, 2 mM CaCl2. The uptake of lithium was then started by adding the same medium containing 3 to 10 mM LiCl and the various inhibitor concentrations. Under these conditions, Lithium uptake is linear. All dose-response curves for the inhibitors tested in this study were therefore measured under initial velocity conditions in which equation (1) applies. At the end of the uptake time the cells were rinsed rapidly (4 rinses in less than 10 seconds) in PBS at 4° C. 250µl of 25% nitric acid were added per well. The cell contents were then transferred into eppendorf tubes. The tubes were centrifuged for 5 min at 13000 rpm at room temperature. The supernatant is used to measure the activity of NHE7 (or NHE1 in control) by measuring intracellular the Li^+ concentrations (which are due to NHE7 transport) by atomic absorption spectroscopy. (Thermo ICE 3000 Series AA Spectrometer). Data obtained from the uptake measurements were used to plot the dose responses curves i.e. the % of maximal lithium uptake as a function of the inhibitors concentrations (Log scale, figure 1).
Because acylguanidines are competitive inhibitors of NHE7, the dose response curves of different concentrations of inhibitors on the rate of transport are given by equation (1) below: V = Vmax[Li^(*)]/(Kmapp+[Li^+]); With Kmapp = Km(1 + [I]/Ki] [formula] • where [I] is the inhibitor concentration, • Vmax is the maximum speed of the exchanger, expressed in (100)% in the dose response curves, • Km is the value of the Michaelis constant for Lithium (see Milosavljevic et al., Cell rep. 7, 1-8, May 8, 2014, 689-696 for NHE7) • Ki the dissociation constant for the inhibitor under consideration.
It is simple to obtain a linear equation by plotting the Maximal rate (w/o inhibitor) versus the rates in the presence of inhibitor, as a function of the inhibitor concentration. The slope is then proportional to 1/Ki. Table 1: Ki of the tested inhibitors

[3] = test system: WT NHE7 transfected cells; test: Endocytosis kinetics: Alexa 555 transferrin uptake in cells expressing NHE7 in intracellular compartments; type: cell-based; conditions: different concentrations of zoniporide, five minutes of incubation, figure 2
Experimental: […] Alexa 555 transferrin (Invitrogen) was bound for various times at 37°C on WT NHE7 transfected cells (that express NHE7 specifically in intracellular compartments) in control conditions or in the presence of zoniporide at the defined concentrations. After five minutes of incubation, the coverslips were rapidly rinsed in ice-cold PBS and the cells were fixed in ice-cold 4% PFA and then permeabilized with 2% saponin. The nuclei were then stained with DAPI. These different steps rinse the transferrin, which has not been internalized, and stop intracellular traffic. This makes it possible to visualize the endocytosis at different times. The coverslips were then mounted and photographed for image analysis and quantification. […] Endocytosis was quantified as the normalized fluorescence accumulation in intracellular clusters as a function of time using a home-made macro (Mica Imaging platform, Nice) on Image J NIH ImageJ (Schneider, C. A.; Rasband, W. S. & Eliceiri, K. W. (2012), "NIH Image to ImageJ: 25 years of image analysis", Nature methods 9(7): 671-675). […] Then, all the clusters of red pixels (Alexa transferrin 555) with a density, a shape and a surface defined by the macro (and parameterizable by the user) are quantified inside each mask. […]

Sequence of NHE1 (P19634 whole entry, species assumed): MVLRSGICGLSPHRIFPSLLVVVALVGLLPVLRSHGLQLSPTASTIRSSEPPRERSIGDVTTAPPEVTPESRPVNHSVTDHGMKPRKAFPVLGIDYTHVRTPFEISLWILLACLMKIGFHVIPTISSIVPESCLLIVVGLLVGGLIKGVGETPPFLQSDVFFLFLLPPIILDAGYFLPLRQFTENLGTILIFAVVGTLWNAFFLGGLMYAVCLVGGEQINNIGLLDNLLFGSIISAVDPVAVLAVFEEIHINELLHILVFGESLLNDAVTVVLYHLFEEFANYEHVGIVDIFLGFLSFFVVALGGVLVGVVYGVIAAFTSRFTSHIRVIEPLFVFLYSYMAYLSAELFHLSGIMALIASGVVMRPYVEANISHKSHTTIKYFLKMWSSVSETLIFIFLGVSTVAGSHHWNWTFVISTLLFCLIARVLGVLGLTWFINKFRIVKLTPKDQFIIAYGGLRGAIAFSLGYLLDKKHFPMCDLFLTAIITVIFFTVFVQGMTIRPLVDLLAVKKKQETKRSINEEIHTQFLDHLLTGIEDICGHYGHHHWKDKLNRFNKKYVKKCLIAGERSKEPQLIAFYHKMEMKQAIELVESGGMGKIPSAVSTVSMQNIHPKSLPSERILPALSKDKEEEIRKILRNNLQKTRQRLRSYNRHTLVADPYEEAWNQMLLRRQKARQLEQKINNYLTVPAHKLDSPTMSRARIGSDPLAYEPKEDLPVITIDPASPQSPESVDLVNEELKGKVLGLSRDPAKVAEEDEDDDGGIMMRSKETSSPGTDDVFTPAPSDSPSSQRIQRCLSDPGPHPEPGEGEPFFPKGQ

| pKi (NHE1) | pKi (NHE7 [2]) | Compound | other results |
| --- | --- | --- | --- |
| – | – | [Li+] [Li^+, lithium] | Km (NHE1): 10 mM; Km (NHE7 [1]): 16 mM |
| 7.70 | 7.10 | N=C(N)NC(=O)c1nc(Cl)c(N2CCCCCC2)nc1N [HMA, hexamethyl-amiloride] | – |
| – | 5.79 | N=C(N)NC(=O)c1nc(Cl)c(N)nc1N [Amiloride, amiloride] | – |
| 7.40 | 7.70 | CC(C)c1ccc(C(=O)NC(=N)N)cc1S(C)(=O)=O [Cariporide, cariporide] | – |
| 7.00 | 6.77 | CN(C)c1nc(N)c(C(=O)NC(=N)N)nc1Cl [DMA, dimethyl-amiloride] | – |
| 7.70 | 8.52 | N=C(N)NC(=O)c1cnn(-c2cccc3ncccc23)c1C1CC1 [Zoniporide, zoniporide] | % of endocytosis [3]: dose-dependent effect; affinity to NHE7 (NHE7 [2]): very good affinity; selectivity of affinity NHE7 compare to NHE1 (NHE7 [2]): selective to NHE7 compare to NHE1 |
| 7.00 | 7.40 | CCN(c1nc(N)c(C(=O)NC(=N)N)nc1Cl)C(C)C [EIPA, 5N-(ethylisopropyl) amiloride] | – |
| – | – | [Na+] [Na^+, sodium] | Km (NHE1): 30 mM |
| 7.40 | 8.60 | Cc1cc(-n2cccc2)c(S(C)(=O)=O)cc1C(=O)NC(=N)N [Eniporide, eniporide] | affinity to NHE7 (NHE7 [2]): very good affinity; selectivity of affinity NHE7 compare to NHE1 (NHE7 [2]): selective to NHE7 compare to NHE1 |
